# Patent publication US11459545B2, “Methods to enhance delivery and engraftment of stem cells including the identification of specific prostaglandin E2 receptors” (INDIANA UNIVERSITY RESEARCH AND TECHNOLOGY CORPORATION, priority 2009, dated 2022)
# System: CD34+ cells from cord blood
# Experiment: CXCR4 expression on CD34+ cells after ex vivo pulse exposure (flow cytometry)
# Assay type: cell-based, human
# Details: for up regulation of CXCR4 on the surface of CD34+ cells: cord blood samples, ex vivo pulse exposure, cytometry histograms compared to isotype control (FIG. 1)
# Procedure: Un-manipulated hematopoietic grafts or purified hematopoietic stem cell populations (e.g., SKL cells in mice or CD34^+ cells in humans) are incubated with an EP4 specific agonist: 5-[(1E,3R)-4,4-difluoro-3-hydroxy-4-phenyl-1-buten-1-yl]-1-[6-(2H-tetrazol-5R-yl)hexyl]-2-pyrrolidinone (i.e. L-902,688), on ice or at room temperature at concentrations of 0.001-10 microMolar agonist per 1-10 million cells in 1 ml of culture medium, e.g. IMDM, for 15 minutes-6 hrs. After incubation, the cells are washed 3 times in sterile media or saline and administered to recipients, intravenously. L-902,688 was a generous gift from Merck Frosst (Kirkland, Canada) (Young, et al., 2004).
# Referring now to FIG. 1. This graph illustrates that treatment of cells with EP4 agonist ex vivo specifically up regulates CXCR4 expression on CD34^+ cells. […] The bar graph indicator data measured from such experiments graphed as a function of different compounds used dmPGE2, Butaprostone, sulprostone and EP4.
# Referring now to FIG. 2. This graph illustrates that signaling via the EP4 receptor is responsible for up regulation of CXCR4 expression. […] Treatment with EP4 agonist ex vivo up regulates CXCR4 expression on CD34^+ cells. […] In the bar chart this effort is normalized to 100%. […] The fact that up regulation of CXCR4 by an EP4 selective agonist is blocked by a selective EP4 antagonist, but not by EP1, 2, 3, antagonist, provides additional evidence that up regulation is mediated through the EP4 receptor.
Compound,up regulation of CXCR4 on the surface of CD34+ cells,"up regulation of CXCR4 expression on CD34+ cells (ex vivo treatment, combined data for 8 cord blood samples (FIG. 2))"
"O=C1CC[C@H](/C=C/[C@@H](O)C(F)(F)c2ccccc2)N1CCCCCCc1nn[nH]n1 [EP4 agonist, 5-[(1E,3R)-4,4-difluoro-3-hydroxy-4-phenyl-1-buten-1-yl]-1-[6-(2H-tetrazol-5R-yl)hexyl]-2-pyrrolidinone]",significant up regulation,about 3 fold
"CCCCC(C)(C)[C@H](O)/C=C/[C@H]1[C@H](O)CC(=O)[C@@H]1C/C=C\CCCC(=O)O [dmPGE2, 16,16 dimethylprostaglandin E2]",significant up regulation,
